Publication PMC9948168, “Vanillin-Based Indolin-2-one Derivative Bearing a Pyridyl Moiety as a Promising Anti-Breast Cancer Agent via Anti-Estrogenic Activity” (ACS Omega, 2023)

What was measured:
Experiment in all cases: NCI-60 one-dose screening
Assay type in all cases: cell-based
MALME-3M = conditions: Homo sapiens, Melanoma, read-out: GI (%)
SW-620 = conditions: Homo sapiens, SW-620, Colon Cancer, read-out: GI (%)
MDA-MB-231/ATCC = conditions: Homo sapiens, Breast Cancer, read-out: GI (%)
U251 = conditions: Homo sapiens, U-251, U251, CNS Cancer, read-out: GI (%)
SF-539 = conditions: Homo sapiens, SF-539, CNS Cancer, read-out: GI (%)
TK-10 = conditions: Homo sapiens, TK-10, Renal Cancer, read-out: GI (%)
SN12C = conditions: Homo sapiens, Renal Cancer, read-out: GI (%)
IGROV1 = conditions: Homo sapiens, IGROV-1, IGROV1, Ovarian Cancer, read-out: GI (%)
SNB-75 = conditions: Homo sapiens, SNB-75, CNS Cancer, read-out: GI (%)
786-0 = conditions: Homo sapiens, 786-0, Renal Cancer, read-out: GI (%)
KM12 = conditions: Homo sapiens, KM12, Colon Cancer, read-out: GI (%)
MDA-MB-435 = conditions: Homo sapiens, MDA-MB-435, Melanoma, read-out: GI (%)
HT29 = conditions: Homo sapiens, HT-29, HT29, Colon Cancer, read-out: GI (%)
SR = conditions: Homo sapiens, Leukemias, read-out: GI (%)
HOP-92 = conditions: Homo sapiens, HOP-92, Non-Small Cell Lung Cancer, read-out: GI (%)
ACHN = conditions: Homo sapiens, Renal Cancer, read-out: GI (%)
OVCAR-5 = conditions: Homo sapiens, OVCAR-5, Ovarian Cancer, read-out: GI (%)
HCT-15 = conditions: Homo sapiens, HCT-15, Colon Cancer, read-out: GI (%)
RPMI-8226 = conditions: Homo sapiens, RPMI-8226, Leukemias, read-out: GI (%)
LOX IMVI = conditions: Homo sapiens, Melanoma, read-out: GI (%)
OVCAR-8 = conditions: Homo sapiens, OVCAR-8, Ovarian Cancer, read-out: GI (%)
NCI-H226 = conditions: Homo sapiens, NCI-H226, Non-Small Cell Lung Cancer, read-out: GI (%)
DU-145 = conditions: Homo sapiens, DU-145, Prostate Cancer, read-out: GI (%)
SK-OV-3 = conditions: Homo sapiens, SK-OV-3, Ovarian Cancer, read-out: GI (%)
NCI-H322M = conditions: Homo sapiens, Non-Small Cell Lung Cancer, read-out: GI (%)
NCI-H460 = conditions: Homo sapiens, NCI-H460, Non-Small Cell Lung Cancer, read-out: GI (%)
UACC-257 = conditions: Homo sapiens, UACC-257, Melanoma, read-out: GI (%)
HOP-62 = conditions: Homo sapiens, HOP-62, Non-Small Cell Lung Cancer, read-out: GI (%)
K-562 = conditions: Homo sapiens, K562, K-562, Leukemias, read-out: GI (%)
MCF7 = conditions: Homo sapiens, MCF7, 10 μM; MCF7, Breast Cancer; read-out: GI (%)
COLO 205 = conditions: Homo sapiens, COLO 205, Colon Cancer, read-out: GI (%)
A498 = conditions: Homo sapiens, A498, Renal Cancer, read-out: GI (%)
HCT-116 = conditions: Homo sapiens, HCT-116, Colon Cancer, read-out: GI (%)
MDA-MB-468 = conditions: Homo sapiens, MDA-MB-468, Breast Cancer, read-out: GI (%)
PC-3 = conditions: Homo sapiens, PC-3, Prostate Cancer, read-out: GI (%)
CCRF-CEM = conditions: Homo sapiens, Leukemias, read-out: GI (%)

SMILES	inhibition at 10 µM (MALME-3M)	inhibition at 10 µM (SW-620)	inhibition at 10 µM (MDA-MB-231/ATCC)	inhibition at 10 µM (U251)	inhibition at 10 µM (SF-539)	inhibition at 10 µM (TK-10)	inhibition at 10 µM (SN12C)	inhibition at 10 µM (IGROV1)	inhibition at 10 µM (SNB-75)	inhibition at 10 µM (786-0)	inhibition at 10 µM (KM12)	inhibition at 10 µM (MDA-MB-435)	inhibition at 10 µM (HT29)	inhibition at 10 µM (SR)	inhibition at 10 µM (HOP-92)	inhibition at 10 µM (ACHN)	inhibition at 10 µM (OVCAR-5)	inhibition at 10 µM (HCT-15)	inhibition at 10 µM (RPMI-8226)	inhibition at 10 µM (LOX IMVI)	also measured
COc1cc(/C=C2/C(=O)Nc3cc(Cl)ccc32)ccc1OCc1ccccc1 [6k]	4.05%	2.54%	8.09%	-7.73%	5.85%	-55.6%	3.34%	23.4%	3.2%	-8.46%	1.29%	-4.45%	-1.24%	6.78%	4.54%	7.71%	3.05%	6.47%	-4.86%	16.1%	inhibition at 10 µM (OVCAR-8): 0.19%; inhibition at 10 µM (NCI-H226): 1.98%; inhibition at 10 µM (DU-145): -4.08%; inhibition at 10 µM (SK-OV-3): -10.9%; inhibition at 10 µM (NCI-H322M): 0.99%; inhibition at 10 µM (NCI-H460): 1.83%; inhibition at 10 µM (UACC-257): -10.4%; inhibition at 10 µM (HOP-62): 0.16%; inhibition at 10 µM (K-562): 3.86%; inhibition at 10 µM (MCF7): 31%; inhibition at 10 µM (COLO 205): -16.6%; inhibition at 10 µM (A498): -15.1%; inhibition at 10 µM (HCT-116): -2.15%; inhibition at 10 µM (MDA-MB-468): 7.61%; inhibition at 10 µM (PC-3): 6.35%; inhibition at 10 µM (CCRF-CEM): -1.12%
COc1cc(C=C2C(=O)Nc3ccccc32)ccc1OCc1ccccc1 (mixture of isomers) [6a]	8.77%	9.55%	5.3%	-6.68%	0.76%	-40.3%	3.52%	5.2%	-0.57%	-0.73%	-0.02%	-3.92%	-2.25%	14.6%	4.67%	6.95%	-2.62%	12.2%	1%	7.61%	inhibition at 10 µM (OVCAR-8): -0.93%; inhibition at 10 µM (NCI-H226): -0.06%; inhibition at 10 µM (DU-145): 0.43%; inhibition at 10 µM (SK-OV-3): -10.3%; inhibition at 10 µM (NCI-H322M): 5.18%; inhibition at 10 µM (NCI-H460): 20.2%; inhibition at 10 µM (UACC-257): -21.2%; inhibition at 10 µM (HOP-62): -3.56%; inhibition at 10 µM (K-562): 3.5%; inhibition at 10 µM (MCF7): 35.7%; inhibition at 10 µM (COLO 205): -17.8%; inhibition at 10 µM (A498): -0.19%; inhibition at 10 µM (HCT-116): 10.3%; inhibition at 10 µM (MDA-MB-468): 8.69%; inhibition at 10 µM (PC-3): 5.85%; inhibition at 10 µM (CCRF-CEM): 9.45%
